Measured values reported in PubChem BioAssay (NCI).
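All cell lines were grown in 96-well plates and treated with compound for 48 hours. At the GI50, growth is halved. TGI denotes the concentration required for complete inhibition of growth.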

Columns and labels:
Assay in all cases: DTP human tumour cell line panel, 48 h
[1] = test system: NCI-H460 lung
[2] = test system: K-562 leukemia
[3] = test system: NCI-H522 lung
[4] = test system: UO-31 renal
[5] = test system: HS 578T breast
[6] = test system: IGROV1 ovarian
[7] = test system: UACC-62 melanoma
[8] = test system: SN12C renal
[9] = test system: HCC-2998 colon
[10] = test system: ACHN renal
[11] = test system: MALME-3M melanoma
[12] = test system: SF-295 CNS
[13] = test system: MCF7 breast
[14] = test system: RXF 393 renal
[15] = test system: SK-MEL-5 melanoma
[16] = test system: SNB-75 CNS
[17] = test system: A498 renal
[18] = test system: SF-539 CNS
[19] = test system: NCI-H226 lung
[20] = test system: T-47D breast
[21] = test system: OVCAR-4 ovarian
[22] = test system: PC-3 prostate
[23] = test system: MDA-MB-231 breast
[24] = test system: KM12 colon
[25] = test system: SR leukemia
[26] = test system: LOX IMVI melanoma
[27] = test system: DU-145 prostate
[28] = test system: HCT-116 colon
[29] = test system: NCI/ADR-RES ovarian
[30] = test system: HT29 colon
[31] = test system: MDA-MB-435
[32] = test system: CCRF-CEM leukemia
[33] = test system: CAKI-1 renal
[34] = test system: M14 melanoma
[35] = test system: NCI-H23 lung
[36] = test system: SNB-19 CNS
[37] = test system: 786-0 renal
[38] = test system: OVCAR-5 ovarian
[39] = test system: SK-OV-3 ovarian
[40] = test system: SF-268 CNS
[41] = test system: SW-620 colon
[42] = test system: BT-549 breast
[43] = test system: UACC-257 melanoma
[44] = test system: U251 CNS
[45] = test system: RPMI-8226 leukemia
[46] = test system: EKVX NSCLC
[47] = test system: MOLT-4 leukemia
[48] = test system: SK-MEL-28 melanoma
[49] = test system: HOP-62 NSCLC
[50] = test system: HCT-15 colon
[51] = test system: SK-MEL-2 melanoma
[52] = test system: OVCAR-3 ovarian
[53] = test system: HOP-92 NSCLC
[54] = test system: COLO 205 colon
[55] = test system: OVCAR-8 ovarian

SMILES: COc1ccc(C2CC(n3nnnc3-c3ccccc3)=NN2)cc1 (stereo not given)
- GI50 [1]: 2.84 µM
- TGI [1]: 13.7 µM
- GI50 [2]: 0.486 µM
- TGI [2]: 28.2 µM
- GI50 [3]: 1.16 µM
- TGI [3]: 20.4 µM
- GI50 [4]: 1.39 µM
- TGI [4]: 11.7 µM
- GI50 [5]: 19.7 µM
- TGI [5]: 70.3 µM
- GI50 [6]: 2.44 µM
- TGI [6]: > 100 µM
- GI50 [7]: 0.465 µM
- TGI [7]: 12.5 µM
- GI50 [8]: 12.7 µM
- TGI [8]: > 100 µM
- GI50 [9]: 3.41 µM
- TGI [9]: 17.2 µM
- GI50 [10]: 1.44 µM
- TGI [10]: 22.4 µM
- GI50 [11]: 2.66 µM
- TGI [11]: 20.3 µM
- GI50 [12]: 0.662 µM
- TGI [12]: 3.12 µM
- GI50 [13]: 2.68 µM
- TGI [13]: 38.7 µM
- GI50 [14]: 21.1 µM
- TGI [14]: 95.6 µM
- GI50 [15]: 2.12 µM
- TGI [15]: 7.81 µM
- GI50 [16]: 14.4 µM
- TGI [16]: 54 µM
- GI50 [17]: 18.6 µM
- TGI [17]: 55.1 µM
- GI50 [18]: 2.34 µM
- TGI [18]: 5.87 µM
- GI50 [19]: 4.98 µM
- TGI [19]: 22.8 µM
- GI50 [20]: 1.16 µM
- TGI [20]: 87.3 µM
- GI50 [21]: 1.11 µM
- TGI [21]: 94.8 µM
- GI50 [22]: 6.28 µM
- TGI [22]: 72.3 µM
- GI50 [23]: 0.564 µM
- TGI [23]: 12.8 µM
- GI50 [24]: 0.617 µM
- TGI [24]: 13.6 µM
- GI50 [25]: 35.6 µM
- TGI [25]: > 100 µM
- GI50 [26]: 0.693 µM
- TGI [26]: 15.2 µM
- GI50 [27]: 12.9 µM
- TGI [27]: 49.3 µM
- GI50 [28]: 4.87 µM
- TGI [28]: 22.3 µM
- GI50 [29]: 4.3 µM
- TGI [29]: 33.7 µM
- GI50 [30]: 2.82 µM
- TGI [30]: 17.9 µM
- GI50 [31]: 0.974 µM
- TGI [31]: 15.6 µM
- GI50 [32]: 0.499 µM
- TGI [32]: 51.1 µM
- GI50 [33]: 0.38 µM
- TGI [33]: 2.98 µM
- GI50 [34]: 0.6 µM
- TGI [34]: 14.6 µM
- GI50 [35]: 10.8 µM
- TGI [35]: 41.7 µM
- GI50 [36]: 18.1 µM
- TGI [36]: > 100 µM
- GI50 [37]: 4.61 µM
- TGI [37]: 37.3 µM
- GI50 [38]: 5.59 µM
- TGI [38]: 61.7 µM
- GI50 [39]: 22.4 µM
- TGI [39]: 66.1 µM
- GI50 [40]: 6.38 µM
- TGI [40]: 54.5 µM
- GI50 [41]: 2.82 µM
- TGI [41]: 25.1 µM
- GI50 [42]: 8.89 µM
- TGI [42]: 37.6 µM
- GI50 [43]: 2.76 µM
- TGI [43]: 12.6 µM
- GI50 [44]: 9.88 µM
- TGI [44]: 35.9 µM
- GI50 [45]: 2.88 µM
- TGI [45]: 53.5 µM
- GI50 [46]: 1.8 µM
- TGI [46]: 36.3 µM
- GI50 [47]: 5.99 µM
- TGI [47]: 42.6 µM
- GI50 [48]: 13.3 µM
- TGI [48]: > 100 µM
- GI50 [49]: 12.8 µM
- TGI [49]: 45.8 µM
- GI50 [50]: 2.16 µM
- TGI [50]: 26.2 µM
- GI50 [51]: 11.6 µM
- TGI [51]: 32.7 µM
- GI50 [52]: 3.05 µM
- TGI [52]: 12 µM
- GI50 [53]: 11.6 µM
- TGI [53]: 42.6 µM
- GI50 [54]: 3.5 µM
- TGI [54]: 11.7 µM
- GI50 [55]: 4.07 µM
- TGI [55]: 61.7 µM
